The values that follow come from patent publication US7781591B2, “Substituted 3-cyanopyridines as protein kinase inhibitors” (Wyeth LLC, priority 2006, dated 2010).

The target in this assay is T1, human PKCθ full length enzyme (Homo sapiens, UniProt Q04759).
T1 construct: human PKCθ full length enzyme (Panvera Cat# P2996); purchased Panvera P2996
Nature of the assay: PKCθ IMAP assay (fluorescence polarization). Type of assay: biochemical. The note with it: human PKCθ full length enzyme, IMAP; average value; read-out: IC50 PKCθ IMAP. Here is the method:
The reaction buffer was prepared by diluting the 5× stock reaction buffer and adding DTT to obtain a concentration of 3.0 mM. […] The final concentration of compound was 2× and 10% DMSO. DMSO was added to the rest of the master mix to increase the concentration to 10%. 10 μl of the master mix containing 10% DMSO was added to the rest of the wells on the plate except the 2nd column. 20 μl was transferred from the first column to the 2nd column. The compounds were serially diluted in 2:1 ratio starting from the 2nd column. A 2× ([…]) PKCθ solution was made in the reaction buffer. 10 μl of the PKCθ solution was added to every well to achieve these final concentrations: PKCθ—1 nM; ATP—6 μM; peptide—100 nM; DMSO—5%. Samples were incubated for 25 minutes at room temperature. The binding reagent was prepared by diluting the beads in 1× binding buffer to 800:1. 50 μl of the binding reagent was added to every well and incubated for 20 minutes. FP was measured using Envision2100 (PerkinElmer Life Sciences). Wells with no ATPs and wells with no enzymes were used as controls.

T1 sequence (Q04759 whole entry): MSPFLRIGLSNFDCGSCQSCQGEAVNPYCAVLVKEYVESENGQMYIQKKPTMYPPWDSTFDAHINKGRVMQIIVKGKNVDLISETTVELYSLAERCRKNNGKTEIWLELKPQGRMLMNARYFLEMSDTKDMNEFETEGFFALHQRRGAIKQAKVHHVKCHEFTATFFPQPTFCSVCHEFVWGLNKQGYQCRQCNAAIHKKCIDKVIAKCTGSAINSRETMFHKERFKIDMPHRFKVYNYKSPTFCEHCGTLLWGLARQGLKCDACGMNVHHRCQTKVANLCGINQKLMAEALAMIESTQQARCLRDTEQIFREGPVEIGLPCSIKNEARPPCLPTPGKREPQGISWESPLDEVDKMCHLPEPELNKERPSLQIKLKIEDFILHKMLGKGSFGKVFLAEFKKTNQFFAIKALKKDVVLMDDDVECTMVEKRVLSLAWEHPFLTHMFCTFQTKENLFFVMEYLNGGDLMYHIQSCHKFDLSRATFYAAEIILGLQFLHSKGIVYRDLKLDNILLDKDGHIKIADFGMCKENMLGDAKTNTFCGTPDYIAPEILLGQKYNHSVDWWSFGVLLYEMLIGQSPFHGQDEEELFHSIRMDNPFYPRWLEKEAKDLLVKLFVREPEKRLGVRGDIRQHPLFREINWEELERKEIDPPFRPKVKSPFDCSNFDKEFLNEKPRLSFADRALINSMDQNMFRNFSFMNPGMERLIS

As for `N#Cc1cncc(-c2cc3cc(C=O)ccc3s2)c1Nc1cccc2[nH]ccc12` [Compound 223, 5-(5-formyl-1-benzothien-2-yl)-4-(1H-indol-4-ylamino)nicotinonitrile], the 50% inhibitory concentration (IC50) (in general, the concentration that gives 50% inhibition) was determined as 6 nM. With `CN(C)Cc1ccc2sc(-c3cncc(C#N)c3Nc3cccc4[nH]ccc34)cc2c1` [Compound 224, 5-{5-[(dimethylamino)methyl]-1-benzothien-2-yl}-4-(1H-indol-4-ylamino)nicotinonitrile] the figure was 4 nM; with `N#Cc1cncc(-c2ccc(O)cc2)c1Nc1cccc2[nH]ccc12` [Compound 225, 5-(4-hydroxyphenyl)-4-(1H-indol-4-ylamino)nicotinonitrile], 5 nM.

On to `N#Cc1cncc(-c2ccc(OC[C@@H](N)Cc3ccccc3)cc2)c1Nc1cccc2[nH]ccc12` [Compound 226, 5-(4-{[(2S)-2-amino-3-phenylpropyl]oxy}phenyl)-4-(1H-indol-4-ylamino)nicotinonitrile], for which the half-inhibitory concentration (IC50) is 3 nM. In the case of `Cc1c(Nc2c(C#N)cncc2-c2cc3cc(C=O)ccc3s2)ccc2[nH]ccc12` [Compound 227, 5-(5-formyl-1-benzothien-2-yl)-4-[(4-methyl-1H-indol-5-yl)amino]nicotinonitrile] it was 1 nM. For the molecule `Cc1c(Nc2c(C#N)cncc2-c2cc3cc(CN4CCCCC4)ccc3s2)ccc2[nH]ccc12` [Compound 228, 4-[(4-methyl-1H-indol-5-yl)amino]-5-[5-(piperidin-1-ylmethyl)-1-benzothien-2-yl]nicotinonitrile], the IC50 was found to be 2 nM. With `Cc1c(Nc2c(C#N)cncc2-c2cc3cc(CO)ccc3s2)ccc2[nH]ccc12` [Compound 229, 5-[5-(hydroxymethyl)-1-benzothien-2-yl]-4-[(4-methyl-1H-indol-5-yl)amino]nicotinonitrile] the figure was 8 nM; with `COc1ccc(-c2cncc(C#N)c2Nc2ccc3[nH]ccc3c2)cc1OCCN1CCOCC1` [Compound 230, 4-(1H-indol-5-ylamino)-5-[4-methoxy-3-(2-morpholin-4-ylethoxy)phenyl]nicotinonitrile], 330 nM; with `COc1ccc(-c2cncc(C#N)c2Nc2ccc3[nH]ccc3c2)cc1OCCN1CCN(C)CC1` [Compound 231, 4-(1H-indol-5-ylamino)-5-{4-methoxy-3-[2-(4-methylpiperazin-1-yl)ethoxy]phenyl}nicotinonitrile], 250 nM.

Turning to `COc1ccc(-c2cncc(C#N)c2Nc2ccc3[nH]ccc3c2)cc1OCCN1CCNCC1` [Compound 232, 4-(1H-indol-5-ylamino)-5-[4-methoxy-3-(2-piperazin-1-ylethoxy)phenyl]nicotinonitrile], the IC50 came to 200 nM. In the case of `COc1ccc(-c2cncc(C#N)c2Nc2ccc3[nH]ccc3c2)cc1OCCN1CCSCC1` [Compound 233, 4-(1H-indol-5-ylamino)-5-[4-methoxy-3-(2-thiomorpholin-4-ylethoxy)phenyl]nicotinonitrile], the IC50 came out at 180 nM. With `CCN1CCN(CCOc2cc(-c3cncc(C#N)c3Nc3ccc4[nH]ccc4c3)ccc2OC)CC1` [Compound 234, 5-{3-[2-(4-ethylpiperazin-1-yl)ethoxy]-4-methoxyphenyl}-4-(1H-indol-5-ylamino)nicotinonitrile] the figure was 190 nM.

Regarding `COc1ccc(-c2cncc(C#N)c2Nc2ccc3[nH]ccc3c2)cc1OCCN1CCCCC1` [Compound 235, 4-(1H-indol-5-ylamino)-5-[4-methoxy-3-(2-piperidin-1-ylethoxy)phenyl]nicotinonitrile], the IC50 is 240 nM. In the case of `COc1ccc(-c2cncc(C#N)c2Nc2ccc3[nH]ccc3c2)cc1OCCN(C)C` [Compound 236, 5-{3-[2-(dimethylamino)ethoxy]-4-methoxyphenyl}-4-(1H-indol-5-ylamino)nicotinonitrile] it was 200 nM; in that of `COc1ccc(-c2cncc(C#N)c2Nc2ccc3[nH]ccc3c2)cc1OCCN(CCO)CCO` [Compound 237, 5-(3-{2-[bis(2-hydroxyethyl)amino]ethoxy}-4-methoxyphenyl)-4-(1H-indol-5-ylamino)nicotinonitrile], 4320 nM.
